Like-named read-outs stand apart in the source and are kept apart here.

Series [1] has as its system wild type HIV-1 (VSVG/HIV-1wt). In words: microbe, parasite or virus in culture. The class given is cell-based. Particulars: for EC50: read-out: EC50±SD.
The test system of series [2] is VSVG/HIV-1RT-Y188L. The class given is cell-based. Particulars: for EC50: read-out: EC50±SD.
The target in series [3] is HIV-1 RT Ribonuclease H (Human immunodeficiency virus type 1 group M subtype B, UniProt P04585). In words: Ribonuclease H activity detection. In kind it is biochemical.
Series [4] concerns HEK 293T cells. The class given is cell-based, human. Particulars: read-out: CC50±SD, 48 h.
In series [5] the test system is VSVG/HIV-1RT-K103N,V108I. The class given is cell-based.
The test system of series [6] is VSVG/HIV-1RT-K103N,G190A. In kind it is cell-based.
Series [7] concerns VSVG/HIV-1RT-K103N. The class given is cell-based.
Series [8] relates to VSVG/HIV-1RT-Y181C. In kind it is cell-based.
The mark [9] stands for this setting: Human immunodeficiency virus 1, HEK-293T.

In general, EC50 refers to the midpoint of the concentration-response curve. Broadly, the IC50 is the point on the concentration scale where inhibition reaches its midpoint. Read a high IC50 as weaker potency in that assay. As for `CCCOn1cc(CC(=O)Nc2ccccc2Cl)c2ccccc21` [Compound 6d, N-(2-Chlorophenyl)-2-(1-propoxy-1H-indol-3-yl)acetamide], the concentration for a half-maximal effect (EC50) in series [1] was 490 nM; in series [2], above 10 µM. Also, the IC50 in series [3] was above 100 µM.
In the case of `CCCOn1cc(CC(=O)Nc2ccncc2Cl)c2ccccc21` [Compound 10f, N-(3-Chloropyridin-4-yl)-2-(1-propoxy-1H-indol-3-yl)acetamide], the EC50 in series [1] is 70 nM. Besides, the IC50 in series [3] is above 100 µM.
`CCCCOn1cc(CC(=O)Nc2ccncc2Cl)c2ccccc21` [Compound 10i, 2-(1-Butoxy-1H-indol-3-yl)-N-(3-chloropyridin-4-yl)acetamide]: the 50% effective concentration (EC50) in series [1] (setting [9]) was determined as 60 ± 0.5 nM. The compound also gave a concentration for half-maximal inhibition (IC50) in series [3] above 100 µM.
In general, CC50 refers to the concentration that lowers cell viability or growth by half. On to `CCCOn1cc(C(=O)C(=O)Nc2ccncc2Cl)c2ccccc21` [Compound 14, N-(3-Chloropyridin-4-yl)-2-oxo-2-(1-propoxy-1H-indol-3-yl)acetamide], for which the 50% cytotoxic concentration (CC50) in series [4] is 20.9 ± 5.11 µM. In series [1], the “infectivity when treated with the compound (percentage in parentheses)” value is given as >10; (131.6 ± 0.60%) and the 50% effective concentration (EC50) was above 10000 nM.
With `CCCOn1cc(C(O)C(=O)Nc2ccncc2Cl)c2ccccc21` (stereo not shown) [Compound 15, N-(3-Chloropyridin-4-yl)-2-hydroxy-2-(1-propoxy-1H-indol-3-yl)acetamide], the cytotoxic concentration (CC50) in series [4] was 19 ± 2.31 µM. Moreover, the EC50 in series [1] worked out at 2010 ± 60 nM.
As to `O=C1Nc2ccc(Cl)cc2[C@@](C#CC2CC2)(C(F)(F)F)O1` [EFV, efavirenz], the “Mean change (fold) in EC50 compared to wild type” value in series [5] is 0.06 ± 0.01 (55.5) fold; in series [6], 0.18 ± 0.01 (183.0) fold; in series [7], 0.03 ± 0.003 (27.0) fold; in series [2] it was 0.12 ± 0.03 (124.3) fold; in series [8] it was 0.002 ± 0.0001 (1.7) fold. For the same compound, the concentration for a half-maximal effect (EC50) in series [1] (setting [9]) was 0.7 ± 0.2 nM; in series [1] it was 1 nM.
Take `Cc1ccnc2c1NC(=O)c1cccnc1N2C1CC1` [NVP, nevirapine, reference compound]: the EC50 in series [1] (setting [9]) was 30 ± 3 nM; in series [1], 20 nM; in series [2], above 100 µM.

(Values after article PMC7111291 (European Journal of Medicinal Chemistry, 2020).)
